# Assay results from PubChem BioAssay (NCI).
# Values joined by “and” are separate entries in the source; they are usually repeats but may differ in a detail not shown here. Equal values may be shown once.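 The compound was tested at five concentrations on cells cultured in 96-well plates, with a 48-hour exposure period. Abbreviation: GI50, concentration required for 50% inhibition of growth. The concentration for full growth arrest is given as TGI.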
# Assays:
# Experiment in all cases: NCI tumour cell line growth inhibition, 48 h
# RXF-631 renal = test system: RXF-631 renal
# KM20L2 colon = test system: KM20L2 colon
# DMS 273 small cell lung = test system: DMS 273 small cell lung
# HOP-18 NSCLC = test system: HOP-18 NSCLC
# T-47D breast = test system: T-47D breast
# MDA-MB-231 breast = test system: MDA-MB-231 breast
# MDA-N = test system: MDA-N
# P388/ADR leukemia = test system: P388/ADR leukemia
# SN12K1 renal = test system: SN12K1 renal
# BT-549 breast = test system: BT-549 breast
# MCF7 breast = test system: MCF7 breast
SMILES,TGI (RXF-631 renal),TGI (KM20L2 colon),TGI (DMS 273 small cell lung),TGI (HOP-18 NSCLC),other results
CC(C)C1(O)C(c2ccccc2)=C(c2ccccc2)C(c2ccccc2)=C1c1ccccc1,51.3 µM,23.3 µM,37.1 µM,52.7 µM,
COC(=O)C1C(O)CC(c2ccccn2)N(Cc2ccccc2)C1c1ccccn1 (configuration not stated),> 100 µM,> 100 µM,> 100 µM,> 100 µM,
CC1OC(OCC2OC(Oc3c(-c4ccc(O)cc4)oc4cc(O)cc(O)c4c3=O)C(OC3OC(C)C(O)C(O)C3O)C(O)C2O)C(O)C(O)C1O (configuration not stated),> 100 µM,> 100 µM,> 100 µM,> 100 µM,
CC(=O)NNc1nc(C)c(C(=O)NNC(=O)C(=O)Nc2c(C)cccc2C)s1,> 100 µM,> 100 µM,> 100 µM,> 100 µM,
COc1cc(/C=C\c2ccccc2)cc(OC)c1OC,> 87.1 µM,3.31 µM,11.5 µM,> 100 µM,
CC(=O)N[C@@H]1C(O)CN2C(=O)C(=O)O[C@H](C(O)CO)[C@@H]12 (some centres not stated),> 100 µM,> 100 µM,> 100 µM,> 100 µM,
Cn1nc(-c2ccccc2)c(C(=O)/C=C/c2ccc(F)cc2)c(N2CCCCC2)c1=O,53.6 µM,19.2 µM,28.8 µM,20.6 µM,
CN(C)c1ccc([O-])cc1.CN(C)c1ccc([O-])cc1.CN(C)c1ccc([O-])cc1.CN(C)c1ccc([O-])cc1.[Ti+4],> 100 µM,> 100 µM,> 100 µM,> 100 µM,GI50 (RXF-631 renal): > 100 µM; GI50 (KM20L2 colon): > 100 µM; GI50 (DMS 273 small cell lung): 34.3 µM; GI50 (HOP-18 NSCLC): > 100 µM
COc1ccccc1/C=C1\CCC(CCN(C)C)(C2=CCCC2)C1=O (configuration not stated),29.8 µM,15.7 µM,32.1 µM,85.3 µM,
COC[C@@H](N=CN1CCc2cc(OC)c(OC)cc2[C@@H]1C)C(C)(C)C,> 100 µM,> 100 µM,,> 100 µM,
CC[C@@]1(O)C[C@H](OC2CC(N(C)C)C(OC3CC(O)C(OC4CCC(=O)C(C)O4)C(C)O3)C(C)O2)c2c(cc3c(c2O)C(=O)c2c(O)cccc2C3=O)[C@H]1C(=O)OC (some centres not stated),0.0664 µM,0.249 µM and 1.07 µM,,0.854 µM and 2.72 µM,TGI (T-47D breast): 0.472 µM and 2.63 µM; TGI (MDA-MB-231 breast): 0.198 µM; TGI (MDA-N): 0.0485 µM and 0.131 µM; TGI (P388/ADR leukemia): 0.659 µM; GI50 (KM20L2 colon): 0.00595 µM and 0.00275 µM; TGI (SN12K1 renal): 0.101 µM
Clc1ccc(Cc2nc3ccccc3s2)c(Cl)c1,30.1 µM,52 µM,33.6 µM,31.4 µM,
CCCCC1CC(c2cccc([N+](=O)[O-])c2)=NO1 (configuration not stated),> 100 µM,> 100 µM,> 100 µM,> 100 µM,
O=C(c1ccc(Cl)cc1)c1ccc(OCCCCCCCCCCOc2ccc(C(=O)c3ccc(Cl)cc3)cc2)cc1,> 100 µM,> 100 µM,> 100 µM,,
CCOC(=O)C1(Br)C(c2ccccc2)NC(=O)NC1(C)Br (configuration not stated),> 100 µM,> 100 µM,> 100 µM,> 100 µM,GI50 (T-47D breast): 47.3 µM; TGI (T-47D breast): > 100 µM; GI50 (MDA-MB-231 breast): 27.8 µM; TGI (MDA-MB-231 breast): > 100 µM; GI50 (BT-549 breast): 14 µM; TGI (BT-549 breast): 65.9 µM; GI50 (MCF7 breast): 28.1 µM; TGI (MCF7 breast): > 100 µM
CC1CC2CC(=O)CC3(C1)C2CCCN3CCCO (configuration not stated),> 100 µM,,> 100 µM,> 100 µM,
C=C(CCCCCCCCC)CC(=O)SCCNC(=O)CCNC(=O)C(O)C(C)(C)COP(=O)(O)OP(=O)(O)OCC1OC(n2cnc3c(N)ncnc32)C(O)C1OP(=O)(O)O (configuration not stated),> 100 µM,> 100 µM,45.2 µM,> 100 µM,TGI (T-47D breast): > 100 µM; TGI (MDA-MB-231 breast): > 100 µM; TGI (MDA-N): > 76.6 µM; TGI (BT-549 breast): > 100 µM; TGI (MCF7 breast): > 100 µM
